Patent US8197863B2, “Hop acids as a replacement for antibiotics in animal feed” (John I. Haas, Inc., priority 2002, dated 2012)

System: total bacteria (bacterial purine)
Assay: In vitro microbe measurements: bacterial purine (total bacteria)
Format: cell-based, cattle
Conditions: alfalfa; monensin 6 ppm
From the text: Proprionate is largely responsible for animal growth. […] There appears to be no effect on alfalfa protozoa and alfalfa bacterial purine by the beta acids. Again, reduction in protozoa and bacteria levels means more food and energy for animal growth.

## CC[C@@]1([C@@H]2O[C@@H]([C@H]3O[C@@](O)(CO)[C@H](C)C[C@@H]3C)C[C@@H]2C)CC[C@H]([C@]2(C)CC[C@]3(C[C@H](O)[C@@H](C)[C@@H]([C@@H](C)[C@@H](OC)[C@H](C)C(=O)O)O3)O2)O1 [monensin]
  elimination of protozoa and bacterial purines: most effectively eliminate
